In ChEMBL document CHEMBL2169795, “Macrocyclic peptoid-Peptide hybrids as inhibitors of class I histone deacetylases” (ACS Med Chem Lett, 2012) one finds IC50, GI50 and inhibition data, which are given here for 15 compounds.

Calls of active or inactive are those of the source. No cut-off for these calls is given here. Some results are limits rather than exact numbers.

In one test the target is Histone deacetylase. The test can be described thus: Inhibition of HDAC in human HeLa cell extracts by fluorimetric assay. The format is protein assay.
The subject of another test is K562. As to the kind of experiment: Cytotoxicity against human K562 cells after 72 hrs by XTT assay. The class given is functional. The settings on record: K562, 72 h. For orientation: Formazan colour is commonly taken as a measure of viable cells.
Test [1] can be described thus: Cytotoxicity against human KYO1 cells after 72 hrs by XTT assay. The format is functional. The settings on record: KYO1, 72 h.
Another test deals with MCF7. The test can be described thus: Cytotoxicity against human MCF7 cells after 72 hrs by XTT assay. The settings on record: MCF7, 72 h. The class given is functional.
Another test relates to HCT-116. As to the kind of experiment: Cytotoxicity against human HCT116 cells after 72 hrs by XTT assay. The format is functional. The settings on record: HCT-116, 72 h.
The subject of the next test is HeLa. The test can be described thus: Cytotoxicity against human HeLa cells after 72 hrs by XTT assay. The format is functional.
Test [2] addresses T1, Protein deacetylase HDAC6 (Homo sapiens, UniProt Q9UBN7).
T1 sequence (Q9UBN7 whole entry): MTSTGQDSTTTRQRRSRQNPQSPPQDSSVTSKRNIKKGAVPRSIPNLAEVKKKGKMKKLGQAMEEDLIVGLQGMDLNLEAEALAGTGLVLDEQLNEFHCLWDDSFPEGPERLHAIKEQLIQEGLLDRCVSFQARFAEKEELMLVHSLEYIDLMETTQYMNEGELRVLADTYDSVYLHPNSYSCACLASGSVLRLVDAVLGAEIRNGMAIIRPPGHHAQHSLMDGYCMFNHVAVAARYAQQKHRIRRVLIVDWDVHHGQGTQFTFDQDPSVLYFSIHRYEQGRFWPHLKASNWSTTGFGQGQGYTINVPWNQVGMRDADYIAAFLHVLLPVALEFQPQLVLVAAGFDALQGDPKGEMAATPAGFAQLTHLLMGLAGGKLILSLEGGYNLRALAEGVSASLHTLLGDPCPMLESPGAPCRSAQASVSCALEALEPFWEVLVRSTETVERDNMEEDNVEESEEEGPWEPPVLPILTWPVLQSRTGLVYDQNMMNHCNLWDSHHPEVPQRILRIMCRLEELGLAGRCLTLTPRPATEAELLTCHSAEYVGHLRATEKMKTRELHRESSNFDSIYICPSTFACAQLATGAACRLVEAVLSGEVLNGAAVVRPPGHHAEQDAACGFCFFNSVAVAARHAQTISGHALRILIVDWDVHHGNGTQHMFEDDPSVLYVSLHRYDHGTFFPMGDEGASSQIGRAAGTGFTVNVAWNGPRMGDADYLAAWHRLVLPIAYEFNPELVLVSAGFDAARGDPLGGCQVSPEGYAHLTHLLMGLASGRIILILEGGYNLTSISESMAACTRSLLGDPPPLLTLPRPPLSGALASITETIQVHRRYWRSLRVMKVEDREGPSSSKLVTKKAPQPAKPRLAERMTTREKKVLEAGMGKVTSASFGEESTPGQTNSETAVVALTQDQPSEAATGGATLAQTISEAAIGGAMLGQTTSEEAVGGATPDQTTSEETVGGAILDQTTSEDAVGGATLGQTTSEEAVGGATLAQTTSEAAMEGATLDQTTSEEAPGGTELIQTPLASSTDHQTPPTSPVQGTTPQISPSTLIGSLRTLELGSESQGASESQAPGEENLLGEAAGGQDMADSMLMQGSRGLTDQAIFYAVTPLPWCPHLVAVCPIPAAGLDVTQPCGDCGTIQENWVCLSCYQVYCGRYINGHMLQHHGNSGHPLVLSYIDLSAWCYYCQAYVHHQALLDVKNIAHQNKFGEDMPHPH
The test can be described thus: Inhibition of human recombinant HDAC6 using Ac-Lys(Ac)-7-amino-4-methylcoumarin as substrate after 30 mins by trypsin-coupled fluorogenic assay.

The target of test [3] is Histone deacetylase 3/Nuclear receptor corepressor 2 (HDAC3/NCoR2) (Homo sapiens, UniProt O15379). As to the kind of experiment: Inhibition of human recombinant HDAC3/NCoR2 using Ac-Lys(Ac)-7-amino-4-methylcoumarin as substrate after 30 mins by trypsin-coupled fluorogenic assay. The format is protein-complex assay.
The next test addresses Histone deacetylase 2 (Homo sapiens, UniProt Q92769). The test can be described thus: Inhibition of human recombinant HDAC2 using Ac-Lys(Ac)-7-amino-4-methylcoumarin as substrate after 30 mins by trypsin-coupled fluorogenic assay.
For another test, the target named is Histone deacetylase 1 (Homo sapiens, UniProt Q13547). The test can be described thus: Inhibition of human recombinant HDAC1 using Ac-Lys(Ac)-7-amino-4-methylcoumarin as substrate after 30 mins by trypsin-coupled fluorogenic assay.
The target in the next test is T2, Histone deacetylase 8 (Homo sapiens, UniProt Q9BY41).
T2 sequence (Q9BY41 whole entry): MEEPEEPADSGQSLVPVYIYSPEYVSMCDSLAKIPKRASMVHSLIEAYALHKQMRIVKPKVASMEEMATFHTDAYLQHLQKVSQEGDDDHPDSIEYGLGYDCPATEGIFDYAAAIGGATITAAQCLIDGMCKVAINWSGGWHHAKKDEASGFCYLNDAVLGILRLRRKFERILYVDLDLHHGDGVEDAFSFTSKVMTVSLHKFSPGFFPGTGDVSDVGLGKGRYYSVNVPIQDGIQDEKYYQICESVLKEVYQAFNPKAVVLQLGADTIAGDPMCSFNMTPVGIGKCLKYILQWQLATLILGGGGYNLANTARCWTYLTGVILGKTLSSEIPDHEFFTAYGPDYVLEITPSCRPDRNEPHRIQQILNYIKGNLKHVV
As to the kind of experiment: Inhibition of human recombinant HDAC8 using Arg-His-Lys(Ac)-Lys(Ac)-AMC as substrate after 30 mins by trypsin-coupled fluorogenic assay.

Test [4] has as its target T3, Protein deacetylase HDAC6 (Homo sapiens) (UniProt Q9UBN7).
T3 sequence (whole entry): T1 sequence (Q9UBN7 whole entry)
The settings on record: Jurkat, 2 to 20 uM.
Description: Inhibition of HDAC6 in human Jurkat cells assessed as increase of acetylated alpha-tubulin level at 2 to 20 uM after 24 hrs by Western blot analysis

For test [5], the target named is Histone deacetylase (Homo sapiens) (UniProt Q13547+O15379+Q9UBN7+Q92769+Q9UQL6+Q8WUI4+Q9BY41+Q96DB2+P56524+Q9UKV0+Q969S8). The settings on record: Jurkat, 2 to 20 uM.
Description: Inhibition of HDAC in human Jurkat cells assessed as increase of acetylated-histone H3 level at 2 to 20 uM after 24 hrs by Western blot analysis

Sequence of Histone deacetylase 3/Nuclear receptor corepressor 2 (HDAC3/NCoR2) (O15379 whole entry): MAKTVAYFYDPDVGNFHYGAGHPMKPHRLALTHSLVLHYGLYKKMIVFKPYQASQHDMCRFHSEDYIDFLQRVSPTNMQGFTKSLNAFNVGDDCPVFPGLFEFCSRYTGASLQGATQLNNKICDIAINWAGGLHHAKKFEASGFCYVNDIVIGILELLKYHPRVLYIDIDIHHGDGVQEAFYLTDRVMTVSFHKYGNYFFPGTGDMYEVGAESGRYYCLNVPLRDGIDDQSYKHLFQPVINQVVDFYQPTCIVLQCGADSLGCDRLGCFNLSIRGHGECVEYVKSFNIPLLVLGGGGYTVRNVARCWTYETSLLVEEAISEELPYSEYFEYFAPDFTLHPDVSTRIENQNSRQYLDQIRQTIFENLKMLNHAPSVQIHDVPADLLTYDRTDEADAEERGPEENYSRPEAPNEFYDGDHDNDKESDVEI
Sequence of Histone deacetylase 3/Nuclear receptor corepressor 2 (HDAC3/NCoR2) (Q9Y618 whole entry, further chain): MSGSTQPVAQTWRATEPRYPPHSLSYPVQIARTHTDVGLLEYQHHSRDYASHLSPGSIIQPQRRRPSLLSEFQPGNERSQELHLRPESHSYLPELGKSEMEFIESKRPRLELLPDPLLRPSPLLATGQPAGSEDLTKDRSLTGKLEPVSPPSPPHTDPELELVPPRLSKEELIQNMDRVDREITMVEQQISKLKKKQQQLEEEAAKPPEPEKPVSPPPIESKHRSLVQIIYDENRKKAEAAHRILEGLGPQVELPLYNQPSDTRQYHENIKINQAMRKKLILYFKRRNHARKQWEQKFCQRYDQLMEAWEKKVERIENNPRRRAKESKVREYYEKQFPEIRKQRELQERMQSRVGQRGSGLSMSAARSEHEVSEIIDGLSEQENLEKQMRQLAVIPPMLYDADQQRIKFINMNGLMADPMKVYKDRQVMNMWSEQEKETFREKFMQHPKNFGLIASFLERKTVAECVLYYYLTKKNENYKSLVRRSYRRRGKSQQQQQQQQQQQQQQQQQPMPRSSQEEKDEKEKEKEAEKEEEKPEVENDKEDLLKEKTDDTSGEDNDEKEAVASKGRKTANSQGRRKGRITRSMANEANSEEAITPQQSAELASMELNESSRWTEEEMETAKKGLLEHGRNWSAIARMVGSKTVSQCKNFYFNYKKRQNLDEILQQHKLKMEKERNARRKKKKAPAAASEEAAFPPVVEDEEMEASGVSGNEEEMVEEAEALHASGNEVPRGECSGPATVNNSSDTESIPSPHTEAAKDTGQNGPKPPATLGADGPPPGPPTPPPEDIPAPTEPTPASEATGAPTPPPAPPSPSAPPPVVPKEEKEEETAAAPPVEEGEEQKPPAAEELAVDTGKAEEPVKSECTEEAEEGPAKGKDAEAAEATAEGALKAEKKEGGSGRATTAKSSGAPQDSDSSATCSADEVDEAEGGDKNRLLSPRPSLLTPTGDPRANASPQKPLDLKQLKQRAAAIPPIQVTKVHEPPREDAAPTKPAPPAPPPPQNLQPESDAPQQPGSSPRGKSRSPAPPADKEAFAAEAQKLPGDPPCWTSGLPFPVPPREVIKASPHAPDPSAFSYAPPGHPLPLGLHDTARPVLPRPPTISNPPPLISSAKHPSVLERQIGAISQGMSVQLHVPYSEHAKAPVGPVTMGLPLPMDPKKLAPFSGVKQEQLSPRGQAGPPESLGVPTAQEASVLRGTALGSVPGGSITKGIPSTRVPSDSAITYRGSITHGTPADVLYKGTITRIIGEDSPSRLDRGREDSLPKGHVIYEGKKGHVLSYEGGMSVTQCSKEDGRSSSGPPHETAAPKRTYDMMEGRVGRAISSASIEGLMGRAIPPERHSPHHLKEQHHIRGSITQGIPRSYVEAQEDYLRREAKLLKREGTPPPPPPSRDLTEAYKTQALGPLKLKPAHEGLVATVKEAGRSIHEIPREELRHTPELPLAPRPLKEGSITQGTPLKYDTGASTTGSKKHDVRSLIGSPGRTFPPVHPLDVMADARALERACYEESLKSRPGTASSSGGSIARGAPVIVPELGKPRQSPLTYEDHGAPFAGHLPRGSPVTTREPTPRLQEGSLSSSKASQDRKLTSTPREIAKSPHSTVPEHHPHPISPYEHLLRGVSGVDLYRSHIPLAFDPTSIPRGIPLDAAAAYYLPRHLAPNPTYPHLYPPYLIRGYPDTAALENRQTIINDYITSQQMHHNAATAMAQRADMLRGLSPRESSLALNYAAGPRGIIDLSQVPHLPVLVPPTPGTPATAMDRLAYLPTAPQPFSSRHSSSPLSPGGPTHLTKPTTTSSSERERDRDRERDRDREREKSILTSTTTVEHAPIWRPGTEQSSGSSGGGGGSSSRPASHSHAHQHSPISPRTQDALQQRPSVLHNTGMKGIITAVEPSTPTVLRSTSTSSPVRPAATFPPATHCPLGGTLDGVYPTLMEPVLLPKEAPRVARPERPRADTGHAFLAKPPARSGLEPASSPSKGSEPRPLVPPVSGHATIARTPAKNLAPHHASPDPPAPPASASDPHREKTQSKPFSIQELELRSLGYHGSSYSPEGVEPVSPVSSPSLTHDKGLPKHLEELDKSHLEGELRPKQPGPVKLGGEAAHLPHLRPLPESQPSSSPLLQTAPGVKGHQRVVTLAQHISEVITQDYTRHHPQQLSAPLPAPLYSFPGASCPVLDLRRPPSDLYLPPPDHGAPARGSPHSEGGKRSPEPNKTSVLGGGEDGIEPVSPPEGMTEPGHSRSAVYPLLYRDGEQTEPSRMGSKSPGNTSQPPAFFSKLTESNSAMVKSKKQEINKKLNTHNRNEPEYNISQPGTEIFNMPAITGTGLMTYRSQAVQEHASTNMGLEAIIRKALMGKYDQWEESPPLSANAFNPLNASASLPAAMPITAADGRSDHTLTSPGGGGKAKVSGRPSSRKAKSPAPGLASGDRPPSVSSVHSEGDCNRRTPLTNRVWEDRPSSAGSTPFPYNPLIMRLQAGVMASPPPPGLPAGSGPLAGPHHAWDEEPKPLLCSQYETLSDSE
Sequence of Histone deacetylase 2 (Q92769 whole entry): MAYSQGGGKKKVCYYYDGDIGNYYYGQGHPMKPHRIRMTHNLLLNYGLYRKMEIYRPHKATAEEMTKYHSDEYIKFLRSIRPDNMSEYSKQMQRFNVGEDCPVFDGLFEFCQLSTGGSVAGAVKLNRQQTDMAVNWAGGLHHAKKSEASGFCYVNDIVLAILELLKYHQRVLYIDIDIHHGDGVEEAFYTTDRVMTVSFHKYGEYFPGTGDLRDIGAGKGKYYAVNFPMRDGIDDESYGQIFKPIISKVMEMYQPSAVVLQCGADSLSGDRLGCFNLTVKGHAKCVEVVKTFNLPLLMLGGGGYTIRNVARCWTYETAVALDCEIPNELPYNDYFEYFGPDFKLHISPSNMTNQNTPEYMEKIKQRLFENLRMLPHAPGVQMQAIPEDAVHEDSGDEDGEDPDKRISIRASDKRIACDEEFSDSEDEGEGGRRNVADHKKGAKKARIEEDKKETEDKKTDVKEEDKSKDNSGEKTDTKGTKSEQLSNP
Sequence of Histone deacetylase 1 (Q13547 whole entry): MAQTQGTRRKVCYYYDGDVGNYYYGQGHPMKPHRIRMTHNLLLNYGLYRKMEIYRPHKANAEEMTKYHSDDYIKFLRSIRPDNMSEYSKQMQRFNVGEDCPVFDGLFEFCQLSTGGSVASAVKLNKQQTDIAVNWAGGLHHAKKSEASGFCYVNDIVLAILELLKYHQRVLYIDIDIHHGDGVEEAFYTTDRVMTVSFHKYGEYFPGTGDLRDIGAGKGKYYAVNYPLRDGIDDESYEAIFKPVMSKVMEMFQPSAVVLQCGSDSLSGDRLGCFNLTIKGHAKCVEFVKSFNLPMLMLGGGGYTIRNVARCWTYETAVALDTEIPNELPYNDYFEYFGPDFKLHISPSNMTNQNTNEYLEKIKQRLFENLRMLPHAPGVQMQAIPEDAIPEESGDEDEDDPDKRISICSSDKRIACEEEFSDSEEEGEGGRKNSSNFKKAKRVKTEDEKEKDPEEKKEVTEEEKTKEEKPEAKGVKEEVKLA

Regarding `CCC(=O)CCCCC[C@@H]1NC(=O)[C@H](C)N(C)C(=O)C[C@H](CC(C)C)NC(=O)CN(CCc2c[nH]c3ccccc23)C1=O`, the IC50 (commonly the point on the concentration scale where inhibition reaches its midpoint) at Histone deacetylase is above 10 µM.

For the compound `CCC(=O)CCCCC[C@@H]1NC(=O)[C@H](CCCCNC(C)=O)NC(=O)CCN(CC(C)C)C(=O)CN(CCc2c[nH]c3ccccc23)C1=O`, the GI50 – broadly, the concentration giving 50% growth inhibition – is 1.5 µM in the test on K562; 10 µM in [1]; above 50 µM with MCF7; 50 µM in the test with HCT-116; 38 µM in the test with HeLa. In addition, the IC50 in test [2] was above 10 µM; in [3], 0.32 µM; on Histone deacetylase 2 it was 0.37 µM; at Histone deacetylase 1 it was 0.2 µM; at Histone deacetylase, 0.21 µM.

Regarding `CCC(=O)CCCCC[C@@H]1NC(=O)[C@H]2CCCCN2C(=O)[C@H]([C@@H](C)CC)NC(=O)[C@H](Cc2cn(OC)c3ccccc23)NC1=O` [APICIDIN], the GI50 in the test with K562 is 1.5 µM; in test [1], 2.7 µM; in the test on MCF7, 5 µM; with HCT-116, 1 µM; in the test on HeLa, 2 µM.

Consider `CCC(=O)CCCCCN1CC(=O)N(Cc2cccc3ccccc23)CC(=O)N(CC(C)C)CCC(=O)N[C@@H](C)C1=O`, for which the IC50 against Histone deacetylase is above 10 µM.

Consider `CCC(=O)CCCCC[C@@H]1NC(=O)[C@H](C)N(C)C(=O)CCN(CC(C)C)C(=O)CN(CC2CCCCC2)C1=O`, for which the IC50 at Histone deacetylase is above 100 µM.

`CCC(=O)CCCCC[C@@H]1NC(=O)[C@H](CCCNC(=N)N)NC(=O)CCN(CC(C)C)C(=O)CN(CCc2c[nH]c3ccccc23)C1=O`: the GI50 (in the test on K562; in [1]; with MCF7; in the test with HCT-116; in the test with HeLa) was above 50 µM each time. Moreover, the IC50 in test [2] is above 10 µM; at Histone deacetylase 8 it was 0.75 µM; in test [3], 0.1 µM; on Histone deacetylase 2, 0.3 µM; on Histone deacetylase 1 it was 0.18 µM; on Histone deacetylase, 0.06 µM. For the same compound, in test [4], the inhibition result was “inactive”. The inhibition entry in [5] was “Active”.

In the case of `CCC(=O)CCCCC[C@@H]1NC(=O)[C@H](C)N(C)C(=O)C[C@H](CC(C)C)NC(=O)[C@H](Cc2c[nH]c3ccccc23)NC1=O`, the GI50 in the test with K562 amounted to 7 µM; in [1], 7.5 µM; with MCF7, 18 µM; in the test with HeLa, 4 µM. Besides, the results for the IC50 (in [2]; at Histone deacetylase 8; on Histone deacetylase 2) were above 10 µM, 2.2 µM and 0.07 µM, respectively.

For `CCC(=O)CCCCC[C@@H]1NC(=O)[C@H](C)N(C)C(=O)CCN(CC(C)C)C(=O)[C@H](Cc2c[nH]c3ccccc23)NC1=O`, the IC50 at Histone deacetylase is above 10 µM.

Compound `CCC(=O)CCCCC[C@@H]1NC(=O)[C@H](C)N(C)C(=O)CCN(CC(C)C)C(=O)CN(Cc2ccccc2)C1=O` displayed an IC50 at Histone deacetylase above 100 µM.

Turning to `CCC(=O)CCCCC[C@@H]1NC(=O)[C@H](C)N(C)C(=O)CCN(CC(C)C)C(=O)CN(Cc2cccc3ccccc23)C1=O`, the IC50 against Histone deacetylase came to 18 µM.

In the case of `CCC(=O)CCCCC[C@@H]1NC(=O)[C@H](C)N(C)C(=O)CCN(CC(C)C)C(=O)CN(Cc2ccc(C)cc2)C1=O`, at Histone deacetylase, the IC50 is above 100 µM.

On Histone deacetylase, `CCC(=O)CCCCCN1CC(=O)N(CCc2c[nH]c3ccccc23)CC(=O)N(CC(C)C)CCC(=O)N(C)[C@@H](C)C1=O` displayed an IC50 above 10 µM.

As to `CCC(=O)CCCCC[C@@H]1NC(=O)[C@H](C)N(C)C(=O)CCN(CC(C)C)C(=O)CN(CCc2ccccc2)C1=O`, the IC50 against Histone deacetylase was above 100 µM.

On to `CCC(=O)CCCCC[C@@H]1NC(=O)[C@H](C)N(C)C(=O)CCN(CC(C)C)C(=O)CN(CCc2c[nH]c3ccccc23)C1=O`, for which the GI50 in the test with K562 was 15 µM; in [1], 18 µM; in the test with MCF7 it was above 50 µM; with HCT-116 it was 28 µM; with HeLa, 30 µM. The IC50 in [2] was above 10 µM; in test [3], 0.65 µM; at Histone deacetylase 2, 2 µM; on Histone deacetylase 1 it was 0.54 µM; against Histone deacetylase, 1 µM.

Turning to `CCC(=O)CCCCC[C@@H]1NC(=O)[C@H](CCCNC(=N)N)NC(=O)CCN(CC=C(C)C)C(=O)CN(CCc2c[nH]c3ccccc23)C1=O`, the GI50 in the test on MCF7, in the test with HCT-116 and in the test with HeLa was above 50 µM throughout. For the same compound, the IC50 in [2] was above 10 µM; in [3] it was 0.27 µM; on Histone deacetylase 2 it was 1.2 µM; on Histone deacetylase 1, 0.7 µM; against Histone deacetylase, 0.25 µM.
